Each block holds one compound with its values, some of them ahead of it.
What was measured:
human FGFR4 kinase = target: T1, human FGFR4 kinase (Homo sapiens, UniProt P22455); assay: FGFR4 kinase assay (Kinase HotSpot, Reaction Biology Corp.); type: biochemical; details: for inhibition at 1 µM: fixed concentration 1 μM, mean of two independent experiments; for inhibition at 0.01 µM: 0.01 μM concentration, two independent experiments
T1 construct: purchased Reaction Biology Corporation (Malvern, PA, USA), contract assay service
Method: A FGFR4 kinase assay was performed at the Reaction Biology Corporation (Malvern, PA, USA) using a Kinase HotSpotSM assay platform (www.reactionbiology.com, last accessed at 19/10/2020). Briefly, human FGFR4 kinase (5–10 mU), peptide substrate, and poly[Glu:Tyr] (4:1) 0.2 mg/ml were prepared in a reaction buffer with a final volume of 25 µL. The compounds were delivered into the reaction, followed ∼20 min. later by the addition of a mixture of ATP and [γ-^33P-ATP] (specific activity approx. 500 cpm/pmol, concentration as required) to a final concentration of 10 µM. After incubation for 40 min. at 25 °C, the reaction was stopped by the addition of a 3% phosphoric acid solution. Then, the reaction was spotted onto a P30 filtermat, and unbound phosphate was removed by washing 3 times for 5 min in 75 mM phosphoric acid and once in methanol prior to drying and scintillation counting. […] IC50 values and curve fits were obtained using GraphPad Prism 5 software.

FGFR1 = target: T2, FGFR1 (Homo sapiens, UniProt P11362); assay: FGFR1 ADP-glow kinase assay; type: biochemical
T2 construct: purchased Promega, WI, USA
Method: (§1) FGFR1 ∼ 3 kinase assays were performed using the adenosine diphosphate (ADP)-glow kinase assay kit of FGFR1, FGFR2, and FGFR3 kinase enzyme systems (Promega, WI, USA) in accordance with the manufacturer’s instructions. […] The reaction was carried out at 25 °C for 1 h in a total volume of 25 µL. Subsequently, 25 µL of ADP-Glow reagent was added to the mixture, and then incubated for 40 min at 25 °C. After the addition of 50 µL of ADP detection reagents for 30 min at 25 °C, luminescence was measured using a Fluostar Omega microplate reader (BMG LABTECH GmbH, Ortenberg, Germany).

FGFR2 = target: T3, FGFR2 (Homo sapiens, UniProt P21802); assay: FGFR2 ADP-glow kinase assay; type: biochemical
T3 construct: purchased Promega, WI, USA
Method: as §1

FGFR3 = target: T4, FGFR3 (Homo sapiens, UniProt P22607); assay: FGFR3 ADP-glow kinase assay; type: biochemical
T4 construct: purchased Promega, WI, USA
Method: as §1

Hep3B cells = assay: Cell proliferation assay (MTT), Hep3B; type: cell-based, human
Method: (§2) Human HCC cell lines, Hep3B and Huh7 were obtained from American Type Culture Collection (ATCC, Manassas, VA, USA). An H6c7 human normal pancreatic duct epithelial cell line was purchased from Kerafast (Boston, MA, USA). Hep3B and Huh7 cells were cultured in Dulbecco′s Modified Eagle′s Medium (DMEM) (Hyclone, Logan, UT, USA). The media were supplemented with 10% foetal bovine serum (FBS) (Gibco/ThermoFisher Scientific) and 1% penicillin/streptomycin (Gibco/ThermoFisher Scientific). H6c7 cells were maintained in a keratinocyte serum-free medium supplemented with a recombinant […] growth factor (rEGF) and bovine pituitary extract (Gibco/ThermoFisher Scientific). All the cells were incubated at 37 °C under a 5% CO2 atmosphere.
(§3) Cells were seeded at a density of 5000 cells/well in a 96-well plate. After overnight incubation, the cells were serum-starved using 1% FBS for 24 h. The next day, the cells were pre-treated with the different concentrations (0.1, 1, 3, 10, 30, 100 µM) of drugs for 1 h prior to the treatment with serum (10% FBS). After 48 h of incubation, 3–(4,5-dimethylthiazol-2-yl)-2,5-diphenyltetrazolium bromide (MTT) dye solution was added and incubated for 4 h. Next, DMSO was added, and after 30 min, the colour intensities were measured using a microplate reader (Versamax, Molecular Devices, Inc., USA) at 490 nm.

Huh7 cells = assay: Cell proliferation assay (MTT), Huh7; type: cell-based, human
Method: as §2, §3

[1] = Cytotoxicity assay (MTT), H6c7; type: cell-based; details: human, H6c7 normal pancreatic duct epithelial cells, 48 h treatment, mean ± SEM of three independent experiments, read-out: IC50 on cell viability (cytotoxicity), H6c7
Method: as §2
The cytotoxicity of the compounds was assessed by measuring the cell viability decrease using the MTT staining method. Briefly, H6c7 cells were seeded in a 96-well plate (Falcon, USA) at a density of 4 × 10^4 cells per well in keratinocyte serum-free medium. After 24 h, Cells were incubated with different concentrations (0.1, 1, 3, 10, 30, and 100) µM of each compound for 48 h, and the cell viability was measured using MTT assay. Optical density was measured at 540 nm using a microplate reader (BMG LABTECH).

[2] = test system: Hep3B-xenografted CAM tumour model; assay: CAM (chick chorioallantoic membrane) tumour model implanted with Hep3B cells; type: in vivo
Method: Fertile chicken eggs were purchased from Byeolbichon Farm (Gyeongbuk, South Korea) and incubated at 37 °C and under 55% relative humidity. On the 9th day of egg incubation (post-fertilization), false air sac was generated on the relatively flat side of eggs by a negative pressure technique. A small window (1 cm^2) was created on the false air sac surface of the eggs by separating the shell and membrane beneath (technique) using a grinding wheel (Dremel, Racine, WI, USA). Next, Hep3B cells were loaded at a density of 1.5 × 10^6 cells/CAM with or without compound. After four days of drug treatment, the tumour weight, number of vessel branch points within the tumour region were analysed.

[3] = four days after Hep3B xenograft on CAM
[4] = number of new vessel branches on CAM, four days

T3 sequence (P21802 22-821): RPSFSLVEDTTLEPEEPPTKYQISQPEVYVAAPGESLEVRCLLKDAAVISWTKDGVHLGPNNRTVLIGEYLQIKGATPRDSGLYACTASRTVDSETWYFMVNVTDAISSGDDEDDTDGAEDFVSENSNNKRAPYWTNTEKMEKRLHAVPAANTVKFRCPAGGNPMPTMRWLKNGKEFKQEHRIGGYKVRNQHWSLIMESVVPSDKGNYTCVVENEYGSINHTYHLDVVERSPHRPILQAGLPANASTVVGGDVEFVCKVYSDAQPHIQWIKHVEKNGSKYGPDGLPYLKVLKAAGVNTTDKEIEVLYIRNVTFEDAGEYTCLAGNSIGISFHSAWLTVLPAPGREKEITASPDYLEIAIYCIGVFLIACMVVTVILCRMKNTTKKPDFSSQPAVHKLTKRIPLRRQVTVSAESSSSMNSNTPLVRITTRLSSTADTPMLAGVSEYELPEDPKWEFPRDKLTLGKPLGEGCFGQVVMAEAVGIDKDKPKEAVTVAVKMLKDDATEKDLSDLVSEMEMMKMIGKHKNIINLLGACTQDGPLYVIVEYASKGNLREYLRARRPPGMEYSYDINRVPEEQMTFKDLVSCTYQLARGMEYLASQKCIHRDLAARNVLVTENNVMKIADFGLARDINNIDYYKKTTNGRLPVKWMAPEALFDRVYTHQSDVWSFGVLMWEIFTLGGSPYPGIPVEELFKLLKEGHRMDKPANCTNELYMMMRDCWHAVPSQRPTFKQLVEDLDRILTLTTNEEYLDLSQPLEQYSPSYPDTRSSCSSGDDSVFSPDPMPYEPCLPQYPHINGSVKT
T1 sequence (P22455 22-802): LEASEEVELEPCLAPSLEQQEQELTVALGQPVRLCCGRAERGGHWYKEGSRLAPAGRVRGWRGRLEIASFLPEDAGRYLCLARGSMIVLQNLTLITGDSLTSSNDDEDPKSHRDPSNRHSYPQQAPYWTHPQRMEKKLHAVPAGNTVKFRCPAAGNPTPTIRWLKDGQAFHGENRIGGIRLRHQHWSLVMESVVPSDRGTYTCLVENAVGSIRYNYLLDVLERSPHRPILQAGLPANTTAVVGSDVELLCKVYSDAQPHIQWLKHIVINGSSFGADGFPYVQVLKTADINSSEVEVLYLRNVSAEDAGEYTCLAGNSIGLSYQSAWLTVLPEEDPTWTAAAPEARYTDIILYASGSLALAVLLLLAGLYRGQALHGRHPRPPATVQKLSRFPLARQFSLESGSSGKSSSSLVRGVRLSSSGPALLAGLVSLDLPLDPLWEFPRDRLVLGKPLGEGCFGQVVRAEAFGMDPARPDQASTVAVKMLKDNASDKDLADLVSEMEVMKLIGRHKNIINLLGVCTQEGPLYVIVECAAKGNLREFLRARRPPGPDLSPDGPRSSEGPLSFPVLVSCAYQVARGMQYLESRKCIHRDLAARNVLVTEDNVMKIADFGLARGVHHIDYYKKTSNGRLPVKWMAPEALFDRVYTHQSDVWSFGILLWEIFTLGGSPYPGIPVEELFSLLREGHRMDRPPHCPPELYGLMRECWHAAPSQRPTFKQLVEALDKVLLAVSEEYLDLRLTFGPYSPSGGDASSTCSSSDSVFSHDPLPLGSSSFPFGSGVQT
T4 sequence (P22607 23-806): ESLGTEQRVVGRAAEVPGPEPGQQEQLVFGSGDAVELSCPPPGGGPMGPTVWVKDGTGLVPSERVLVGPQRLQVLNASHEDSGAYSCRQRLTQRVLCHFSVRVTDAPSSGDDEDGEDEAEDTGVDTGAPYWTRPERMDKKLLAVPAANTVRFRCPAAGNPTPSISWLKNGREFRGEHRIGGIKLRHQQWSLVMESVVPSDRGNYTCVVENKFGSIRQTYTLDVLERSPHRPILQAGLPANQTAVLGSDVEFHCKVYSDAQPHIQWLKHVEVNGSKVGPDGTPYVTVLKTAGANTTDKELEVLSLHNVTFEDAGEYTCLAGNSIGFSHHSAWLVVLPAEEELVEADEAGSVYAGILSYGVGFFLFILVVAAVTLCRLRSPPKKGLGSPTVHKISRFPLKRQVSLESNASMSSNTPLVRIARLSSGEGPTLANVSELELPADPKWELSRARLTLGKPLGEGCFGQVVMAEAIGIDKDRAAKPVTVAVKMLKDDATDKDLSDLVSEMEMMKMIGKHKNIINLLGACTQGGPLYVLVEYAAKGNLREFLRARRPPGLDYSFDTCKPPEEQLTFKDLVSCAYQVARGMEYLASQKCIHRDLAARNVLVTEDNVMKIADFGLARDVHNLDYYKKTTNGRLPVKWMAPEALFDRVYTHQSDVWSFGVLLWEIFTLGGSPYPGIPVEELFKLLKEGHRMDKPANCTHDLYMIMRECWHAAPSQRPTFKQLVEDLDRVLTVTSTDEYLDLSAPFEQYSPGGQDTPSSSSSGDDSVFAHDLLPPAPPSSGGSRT
T2 sequence (P11362 22-822): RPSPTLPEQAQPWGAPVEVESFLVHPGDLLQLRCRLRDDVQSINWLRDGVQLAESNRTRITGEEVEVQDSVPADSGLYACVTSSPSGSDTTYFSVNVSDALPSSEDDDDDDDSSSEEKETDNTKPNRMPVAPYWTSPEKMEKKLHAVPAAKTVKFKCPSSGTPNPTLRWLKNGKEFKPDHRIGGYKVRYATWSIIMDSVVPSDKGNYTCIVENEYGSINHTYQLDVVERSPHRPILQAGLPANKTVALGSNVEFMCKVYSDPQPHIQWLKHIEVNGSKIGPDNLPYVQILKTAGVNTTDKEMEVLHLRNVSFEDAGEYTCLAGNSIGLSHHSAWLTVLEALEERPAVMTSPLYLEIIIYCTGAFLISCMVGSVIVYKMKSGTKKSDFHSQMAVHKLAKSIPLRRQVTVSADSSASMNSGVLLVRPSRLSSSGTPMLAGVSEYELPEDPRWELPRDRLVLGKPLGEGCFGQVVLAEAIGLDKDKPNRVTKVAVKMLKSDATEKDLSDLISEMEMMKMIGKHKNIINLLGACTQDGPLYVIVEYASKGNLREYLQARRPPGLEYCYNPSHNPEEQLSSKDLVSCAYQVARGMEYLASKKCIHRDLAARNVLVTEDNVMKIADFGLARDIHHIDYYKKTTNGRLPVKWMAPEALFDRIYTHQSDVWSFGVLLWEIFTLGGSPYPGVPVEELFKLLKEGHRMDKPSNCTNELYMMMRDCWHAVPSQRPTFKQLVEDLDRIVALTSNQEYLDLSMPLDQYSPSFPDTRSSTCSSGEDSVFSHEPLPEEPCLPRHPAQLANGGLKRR

SMILES: C=CC(=O)Nc1cc(F)cc(Cl)c1Nc1nc(C)c(OCc2c(F)c(OC)cc(OC)c2F)c(C)c1C [Compound 6M]
inhibition at 1 µM (human FGFR4 kinase): 9.9%

SMILES: C=CC(=O)Nc1cc(F)cc(Cl)c1Nc1nc(C)c(OCc2c(Cl)c(OC)cc(OC)c2Cl)c(C)c1C [Compound 6N]
inhibition at 1 µM (human FGFR4 kinase): 11.9%

SMILES: C=CC(=O)Nc1cc(F)cc(Cl)c1Nc1nc(C)c(OCc2c(F)c(OC)cc(OC)c2F)c(C)n1 [Compound 6O, N-(3-Chloro-2-((5-((2,6-difluoro-3,5-dimethoxybenzyl)oxy)-4,6-dimethylpyrimidin-2-yl)amino)-5-fluorophenyl)acrylamide]
IC50 (human FGFR4 kinase; 7 different concentrations, three independent experiments): 0.0753 µM
inhibition at 1 µM (human FGFR4 kinase): 96.7%
FGFR4 selectivity compared to BLU9931 (1) (human FGFR4 kinase; from Table 1 ratios): at least 8 times
Ratio against FGFR4 (FGFR1) (FGFR1; ratio of FGFR1 to FGFR4 inhibitory activity): > 663.8
IC50 (FGFR1; three independent experiments): > 50 µM
Ratio against FGFR4 (FGFR2) (FGFR2; ratio of FGFR2 to FGFR4 inhibitory activity): 471.1
IC50 (FGFR2; three independent experiments): 35.5 µM
Ratio against FGFR4 (FGFR3) (FGFR3; ratio of FGFR3 to FGFR4 inhibitory activity): > 398.3
IC50 (FGFR3; three independent experiments): > 30 µM
fold less potent than compound 1, Hep3B IC50 (Hep3B cells; 48 h): 5 fold
IC50 (Hep3B cells; Homo sapiens, Hep3B, 48 h treatment, mean ± SEM of three independent experiments): 4.5 µM
IC50 (Huh7 cells; Homo sapiens, Huh-7, 48 h treatment, mean ± SEM of three independent experiments): 12.6 ± 1.3 µM
difference of anti-proliferative activity between Hep3B and Huh7 (Huh7 cells; Huh7 versus Hep3B, 48 h): 2.8 fold
IC50 at 48 h [1]: 18 µM
inhibitory effect on the tumour weight compared with compound 1 [2, 3]: slightly weaker
tumour growth [2, 3]: dose-dependently inhibited
antiangiogenic effect compared with compound 1 [2, 4]: slightly weaker
tumour-induced angiogenesis [2, 4]: significantly blocked

SMILES: C=CC(=O)Nc1cccc(OC)c1Nc1nc(C)c(OCc2c(F)c(OC)cc(OC)c2F)c(C)c1C [Compound 6Q]
inhibition at 1 µM (human FGFR4 kinase): 10.3%

SMILES: C=CC(=O)Nc1ccc(OC)cc1Nc1nc(C)c(OCc2c(F)c(OC)cc(OC)c2F)c(C)c1C [Compound 6U]
inhibition at 1 µM (human FGFR4 kinase): 10.1%

SMILES: C=CC(=O)Nc1ccc(OC)cc1Nc1nc(C)c(OCc2c(F)c(OC)cc(OC)c2F)c(C)n1 [Compound 6W]
inhibition at 1 µM (human FGFR4 kinase): 12.2%

SMILES: C=CC(=O)Nc1ccc(N2CCN(CC)CC2)cc1Nc1nc(C)c(OCc2c(F)c(OC)cc(OC)c2F)c(C)c1C [Compound 6Y]
inhibition at 1 µM (human FGFR4 kinase): 10.4%

SMILES: C=CC(=O)Nc1ccc(N2CCN(CC)CC2)cc1Nc1nc(C)c(OCc2c(Cl)c(OC)cc(OC)c2Cl)c(C)c1C [Compound 6Z]
inhibition at 1 µM (human FGFR4 kinase): 2.7%

SMILES: C=CC(=O)Nc1cccc(C)c1Nc1ccc(OCc2c(F)c(OC)cc(OC)c2F)cn1 [Compound 41, reference compound]
inhibition at 0.01 µM (human FGFR4 kinase): 91%

SMILES: C=CC(=O)Nc1cccc(C)c1Nc1ncc(OCc2c(F)c(OC)cc(OC)c2F)cn1 [Compound 42, reference compound]
inhibition at 0.01 µM (human FGFR4 kinase): 87.4%

The next lines start with the values.

inhibition at 1 µM (human FGFR4 kinase): 12.8%
SMILES: C=CC(=O)Nc1cc(F)cc(Cl)c1Nc1nc(C)c(OCc2c(Cl)c(OC)cc(OC)c2Cl)c(C)n1 [Compound 6P]

inhibition at 1 µM (human FGFR4 kinase): 6.9%
SMILES: C=CC(=O)Nc1cccc(OC)c1Nc1nc(C)c(OCc2c(Cl)c(OC)cc(OC)c2Cl)c(C)c1C [Compound 6R]

inhibition at 1 µM (human FGFR4 kinase): 49.3%
SMILES: C=CC(=O)Nc1cccc(OC)c1Nc1nc(C)c(OCc2c(F)c(OC)cc(OC)c2F)c(C)n1 [Compound 6S]

inhibition at 1 µM (human FGFR4 kinase): 11%
SMILES: C=CC(=O)Nc1cccc(OC)c1Nc1nc(C)c(OCc2c(Cl)c(OC)cc(OC)c2Cl)c(C)n1 [Compound 6T]

inhibition at 1 µM (human FGFR4 kinase): 7.7%
SMILES: C=CC(=O)Nc1ccc(OC)cc1Nc1nc(C)c(OCc2c(Cl)c(OC)cc(OC)c2Cl)c(C)c1C [Compound 6V]

inhibition at 1 µM (human FGFR4 kinase): 6.3%
SMILES: C=CC(=O)Nc1ccc(OC)cc1Nc1nc(C)c(OCc2c(Cl)c(OC)cc(OC)c2Cl)c(C)n1 [Compound 6X]
